Data as given in patent US8962322B2, “Enhancers of induced pluripotent stem cell reprogramming” (City of Hope, priority 2012, dated 2015).
Read-outs that look alike come from different tables or passages of the source.

Columns and labels:
[1] = test system: human Oct4 promoter; assay: Oct4-luc luciferase reporter assay (stably transfected CV1 cells); type: cell-based; details: for induction of Oct4-luc, comparison with known reprogramming enhancers (in words): OAC1 1 μM, BIO 2 μM, BIX 2 μM, AzaC 2 μM, Vc 25 μg/ml, Am580 10 nM, tranylcypromine 5 μM, VPA 0.5 mM, two days; for fold induction at 1 µM / Oct4-luc Activity / Oct4-luc fold Induction: compound at 1 μM, Oct4-luc cells, triplicates
Excerpt: A high-throughput screening scheme was designed to identify Oct4 promoter-activating compounds using a luciferase reporter under the control of the human Oct4 promoter (Oct4-luc). […] A stable cell line (Oct4-luc) that expresses luciferase reporter driven by the exogenous Oct4 promoter was established using hygromycin-resistance as a selection marker. These Oct4-luc cells were used for high-throughput screening of a chemical library of 80,000 compounds. The luciferase reporter activity was measured 24 hr after compound treatment. Solvent treatment was included as a negative control.
(§1) Then the promoter sequences were cloned into pGL4.4-luc-Hyg vector (Promega) to get Oct4-luc or Nanog-luc construct and the fidelity of the Oct4 and Nanog promoter DNA sequences was confirmed by bi-directional sequencing. CV 1 cells were transfected with the Oct4-luc or Nanog-luc constructs and the stably-transfected cells were selected by hygromycine resistance.
Compound Screening: The Oct4-luc cells were seeded at 1.75×10^4 cells per well density into 96-well plates. Compounds were added to cells one day after cell seeding at the concentration of 10 μM for 24 hr in the High-Throughput Screening core facility at City of Hope. Compounds that induced luciferase activity 3-fold or more were selected for further validation in both Oct4-luc and Nanog-luc cells.
(§2) Luciferase Reporter Assays: The Oct4-luc or Nanog-luc cells were treated with compound OAC 1 or its structural analogs at 1 μM concentration or at indicated concentrations in triplicates. Other compounds used include 2 μM BIO, 2 μM BIX, 2 μM
(§3) AzaC, 25 μg/ml Vc, 10 nM Am580, 5 μM tranylcypromine, and 0.5 mM VPA. Luciferase reporter assays were performed as described (51) 24 hr after compound treatment or at indicated time points. For Topflash reporter assays, 0.2 μg β-catenin-responsive Topflash reporter gene plasmid was introduced into CV1 cells using trasfection (Bio-Rad). Compounds were added 6 hr after transfection. Luciferase activity was measured 48 hr after compound treatment using the Glo Luciferase Assay System (Promega).

[2] = test system: human Nanog promoter; assay: Nanog-luc luciferase reporter assay (stably transfected CV1 cells); type: cell-based; details: for induction of Nanog-luc, comparison with known reprogramming enhancers (in words): OAC1 1 μM, BIO 2 μM, BIX 2 μM, AzaC 2 μM, Vc 25 μg/ml, Am580 10 nM, tranylcypromine 5 μM, VPA 0.5 mM, two days
Method: Oct4, Sox2, and Nanog form a positive regulatory loop to regulate the expression of each other, and Nanog is considered a downstream target gene of Oct4 and Sox2 (37). Therefore, activation of Nanog promoter was used as a validation assay for the identified compounds. Specifically, the Oct4 promoter-activating compounds were tested to ascertain whether they activate a human
Nanog promoter-driven luciferase reporter gene using in triplicate luciferase reporter assays.
as §1, §2, §3

[3] = test system: β-catenin-responsive reporter gene Topflash; assay: Topflash luciferase reporter assay in CV1 cells (Wnt signaling); type: cell-based; details: 1 μM OAC1 or 2 μM BIO, 48 hr
Method: Whether OAC1 regulates major signaling pathways that are critical for embryonic stem cell pluripotency was investigated. […] CV1 cells were transfected with the β-catenin-responsive reporter gene Topflash, and the transfected cells were treated with vehicle control or OAC1 (FIG. 6C). The glycogen synthase kinase 3β (GSK3β) inhibitor BIO was included as a positive control (42).
as §3

[4] = test system: MEFs; details: OSKM, cited from earlier work
[5] = test system: mouse embryonic fibroblasts (MEFs); assay: iPSC derivation from 4F (OSKM)-transduced MEFs in mouse ESC media; type: cell-based; details: 4F+OAC
Method: The generation of iPSCs is a gradual process with relatively low efficiency. Since Oct4 is central to the reprogramming process (35, 36, 38), it was hypothesized that compounds that activate Oct4 transcription may facilitate iPSC generation by enhancing reprogramming efficiency. Reprogramming of mouse embryonic fibroblasts (MEFs) was performed with the 4F reprogramming quartet Oct4, Sox2, Klf4, and c-Myc, along with solvent control, OAC1 or its structural analogs OAC2 and OAC3. The same number of starting MEFs and the same viral stocks were used for each treatment. Two days after viral transduction, the 4F-transduced cells were seeded onto feeder cells in mouse ESC culture media, and this day was designated as day 0 (FIG. 2D). Compound treatment started on day 0 and lasted for 7 days. By counting the number of clones with ESC-like morphology at day 18, both OAC1 and its analogs OAC2 and OAC3 enhanced the 4F-induced reprogramming efficiency considerably. The number of colonies with ESC-like morphology (FIG. 2E) increased 2-fold or more in 4F plus OAC (4F+OAC) treatment, compared to the 4F treatment alone (FIG. 2F, Table 3).
iPSC Derivation in Mouse ESC Media: OG2/R26MEFs were seeded onto […] at the density of 4×10^4 cells per well in DMEM medium with 10% FBS, 0.1 mM non-essential amino acids (NEAA), and 0.1 mM L-glutamine, 24 hr before transduction. Freshly concentrated viruses of the four factors, Oct4, Sox2, c-Myc, and Klf4, were added to the cells. Two days after viral infection, the viral-transduced OG2/R26MEFs were split into new 6-well plates with irradiated MEF feeder cells and cultured in mouse ESC culture medium containing 15% ESC qualified FBS, 2 mM L-glutamine, 0.1 mM 2-mercaptoethanol, 0.1 mM NEAA, 1 mM sodium pyruvate and 1000 U/ml of leukemia inhibitory factor (LIF), and this day was defined as day 0. 1 μM of each compound (OAC1, OAC2, and OAC3) was added to the 4F-transduced cells at day 0 and treatment was continued for 1 week. When iPSC colonies emerged, these colonies were picked for expansion on irradiated MEF feeders in mouse ESC medium.

[6] = test system: human fibroblast cells (IMR90); assay: human iPSC derivation from 4F (OSKM)-transduced IMR90 fibroblasts; type: cell-based
Method: It has been shown that compound OAC1 (Oct4-activating compound I) and two of its structural analogs OAC2 and OAC3 can enhance reprogramming efficiency, when added to the reprogramming mixture along with the four transcription factors, Oct4, Sox2, Klf4, and c-Myc (OSKM), in mouse system. The OAC compounds were tested to determine if they can enhance reprogramming efficiency in human system. The reprogramming process was performed as described in the diagram (FIG. 14a). Briefly, human fibroblast cells (IMR90) were induced to reprogram into induced pluripotent stem cells (iPSCs) using the four reprogramming factors (4F), OSKM. The day when the cells were transduced with the four reprogramming factors was referred to as day 0. Cells were cultured in IMR90 media for six days. On day 6, the transduced cells were split and seeded onto feeders. On day 7, IMR90 culture media was changed to hESC culture media and started compound treatment. Compound treatment was lasted for one week. Cells were monitored for the appearance of human embryonic stem cell (ESC)-like colonies. On day 9, several small human ESC-like colonies appeared in both 4F+OAC1 and 4F+OAC2-treated cells, however, human ESC-like colonies were not observed in 4F+vehicle (4F)-treated cells until day 11. To determine the effect of OAC on the efficiency of human iPSC derivation, the number of human ESC-like colonies were counted under all three conditions at day 18. Both OAC 1 and its structural analog OAC2 increased the number of human ESC-like colonies more than two-fold (FIG. 14b, c). The human ESC-like colonies were picked from either 4F or 4F+OAC-treated cells and expanded under human ESC culture conditions. These cells were able to expand and stably produce human iPSC clones with characteristic human ESC-like morphology (FIG. 14d).

[7] = day 8 post-infection of reprogramming factors; cited from earlier work
[8] = seeding 5 × 10^4, day 25, reference (4) Lyssiotis 2009
[9] = compound at 1 μM, Nanog-luc cells, triplicates
[10] = seeding 7,500, day 30, reference (5) Ichida 2009
[11] = seeding 2.7 × 10^5, day 8, reference (2) Huangfu 2008

SMILES: O=C1Nc2cc(Br)ccc2/C1=C1/Nc2ccccc2/C1=N\O [BIO, reference compound]
- induction of Oct4-luc, comparison with known reprogramming enhancers (in words) [1]: lower level induction
- induction of Nanog-luc, comparison with known reprogramming enhancers (in words) [2]: lower level induction
- effect on Topflash reporter activity [3]: activated the Topflash reporter potently

SMILES: O=C1Cc2c([nH]c3ccc(Br)cc23)-c2ccccc2N1 [Kenpaullone, kenpaullone]
- Colony numbers [4, 8]: 100
- Reprogramming efficiency [4, 8]: 0.2%

SMILES: O=C(Nc1ccc2[nH]ccc2c1)c1ccccc1 [OAC2, N-(1H-indol-5-yl)benzamide]
- fold induction at 1 µM ([1]; Homo sapiens, CV-1, 24 h, read-out: Oct4-luc Activity): ≥ 1.8
- fold induction at 1 µM ([1]; read-out: Oct4-luc fold Induction): 3.6
- fold induction at 1 µM ([2]; Chlorocebus aethiops, CV-1, compound at 1 μM, Nanog-luc cells, triplicates): 3.9
- advance of the appearance of putative iPSC colonies compared to 4F only reprogramming [5]: about three to four
- day at which human ESC-like colonies appeared ([6]; IMR90, 4F+compound, day 0 = transduction, 4F+vehicle day 11): 9 days
- increase in the number of human ESC-like colonies ([6]; IMR90, day 18, versus 4F): more than two

SMILES: CCOc1ccc(C(=O)Nc2ccc3[nH]ncc3c2)cc1 [OAC9]
- Oct4-luc Activity [1]: ++ (Compounds that induce Oct4-luc 1.8-fold or more were classified as “++”)
- Oct4-luc fold Induction [1]: 4.4 fold
- Nanog-luc fold Induction [2, 9]: 4.4 fold

SMILES: CCc1ccc(C(=O)Nc2ccc3[nH]ncc3c2)cc1 [OAC10]
- Oct4-luc Activity [1]: ++ (Compounds that induce Oct4-luc 1.8-fold or more were classified as “++”)
- Oct4-luc fold Induction [1]: 4.5 fold
- Nanog-luc fold Induction [2, 9]: 4.4 fold

SMILES: CC(C)c1ccc(C(=O)Nc2ccc3[nH]ncc3c2)cc1 [OAC11]
- Oct4-luc Activity [1]: ++ (Compounds that induce Oct4-luc 1.8-fold or more were classified as “++”)
- Oct4-luc fold Induction [1]: 3.8 fold
- Nanog-luc fold Induction [2, 9]: 3.9 fold

SMILES: Cc1ccc(C(=O)Nc2ccc3[nH]ncc3c2)cc1C [OAC13]
- Oct4-luc Activity [1]: ++ (Compounds that induce Oct4-luc 1.8-fold or more were classified as “++”)
- Oct4-luc fold Induction [1]: 2.8 fold
- Nanog-luc fold Induction [2, 9]: 2.9 fold

SMILES: CCOc1cccc(C(=O)Nc2ccc3[nH]ncc3c2)c1 [OAC14]
- Oct4-luc Activity [1]: ++ (Compounds that induce Oct4-luc 1.8-fold or more were classified as “++”)
- Oct4-luc fold Induction [1]: 2.7 fold
- Nanog-luc fold Induction [2, 9]: 2.6 fold

SMILES: COc1cccc(C(=O)Nc2ccc3[nH]ncc3c2)c1 [OAC15]
- Oct4-luc Activity [1]: ++ (Compounds that induce Oct4-luc 1.8-fold or more were classified as “++”)
- Oct4-luc fold Induction [1]: 1.9 fold
- Nanog-luc fold Induction [2, 9]: 1.9 fold

SMILES: COc1ccc(C(=O)Nc2ccc3[nH]c(C)cc3c2)cc1 [OAC16]
- Oct4-luc Activity [1]: ++ (Compounds that induce Oct4-luc 1.8-fold or more were classified as “++”)
- Oct4-luc fold Induction [1]: 3 fold
- Nanog-luc fold Induction [2, 9]: 3.43 fold

SMILES: CN(C)c1ccc(C(=O)Nc2ccc3[nH]ncc3c2)cc1 [OAC17]
- Oct4-luc Activity [1]: ++ (Compounds that induce Oct4-luc 1.8-fold or more were classified as “++”)
- Oct4-luc fold Induction [1]: 4.2 fold
- Nanog-luc fold Induction [2, 9]: 4.56 fold

SMILES: O=C(Nc1ccc2[nH]ncc2c1)c1ccc(Br)cc1 [OAC18]
- Oct4-luc Activity [1]: ++ (Compounds that induce Oct4-luc 1.8-fold or more were classified as “++”)
- Oct4-luc fold Induction [1]: 4.49 fold
- Nanog-luc fold Induction [2, 9]: 4.5 fold

SMILES: Cc1cccc(-c2[nH]ncc2-c2ccc3ncccc3n2)n1 [RepSox2]
- Colony numbers [4, 10]: 7.5
- Reprogramming efficiency [4, 10]: 0.1%

SMILES: CC(/C=C/C(=O)NO)=C\[C@@H](C)C(=O)c1ccc(N(C)C)cc1 [TSA]
- increase in reprogramming efficiency in iSF1 media [7]: 2 fold

SMILES: CCCC(CCC)C(=O)O [VPA, valproic acid]
- induction of Oct4-luc, comparison with known reprogramming enhancers (in words) [1]: no significant effect
- induction of Nanog-luc, comparison with known reprogramming enhancers (in words) [2]: no significant effect
- Colony numbers [4, 11]: 241
- Reprogramming efficiency [4, 11]: 0.089%
- increase in reprogramming efficiency in iSF1 media [7]: 2 fold

SMILES: O=C1O[C@H]([C@@H](O)CO)C(O)=C1O [Vc, Vitamin C, reference compound]
- induction of Oct4-luc, comparison with known reprogramming enhancers (in words) [1]: no significant effect
- induction of Nanog-luc, comparison with known reprogramming enhancers (in words) [2]: no significant effect
